Assay results as given in US20240398771A1, “TREATMENT OF SCLERODERMA AND RAYNAUD'S SYNDROME” (Aisa Pharma, Inc., priority 2023, published 2024).

Assays:
participants with SSc-RP [1] = test: Average severity (0-10) of weekly symptomatic RP attacks; type: in vivo, human; conditions: Example 3
Text: (§1) The relevant metrics measured by this tool daily are: • Study medication • SSc-RP symptoms (Reporting an attack including duration of attack) • Severity of the attack considering all symptoms of the attack e.g. tingling, numbness, pain, color changes (VAS 0-10 cm scale) • Participant's location at the time of the attack (inside home/outside home) • Selecting symptoms experienced during the attack (tingling, numbness, pain, color changes, other) • Pain rating during the attack (11-point Likert scale) • The RCS based on how much difficulty participants had with Raynaud's today, how many attacks the participant had, and how long they lasted. Participants will also be asked to consider how much pain, numbness, or other symptoms the Raynaud's caused in fingers (including painful sores), and how much the Raynaud's alone affected the use of hands today (VAS 0-10 cm scale).
The absolute change in average severity of weekly RP attacks (VAS 0-10 cm scale) from baseline to the end of each Dosing Period was and will be a secondary outcome variable. The sponsor-developed participant-informed diary will be used to record data. Average severity of weekly RP attacks is defined as the total severity scores of RP attacks divided by total number of RP attacks within the last 7 days of each dosing period. […] The variable will be calculated similar to frequency data as before.

participants with SSc-RP [2] = test: SHAQ Standard Disability Index; type: in vivo, human; conditions: Example 4, mITT Part A
Text: The standard, validated, patient reported outcome measures tool for SSc patients, the SHAQ, will be collected at the time points specified in the study schedules (FIG. 2 and FIG. 3A and/or FIG. 3B). To assess the participant's quality of life. The SHAQ includes a Raynaud's VAS that will also be reported separately.
The standard, validated, patient reported outcome measures tool for SSc patients, the Scleroderma Health Assessment Questionnaire (SHAQ), will be used to assess the participant qualify of life. Details are attached in the Appendix. The participant quality of life will be scored, and a disability index calculated for each questionnaire completed by the patient at Screening and each in-clinic visit. The absolute change in participant quality of life from baseline to the end of each dosing period will be calculated similar to frequency data as before.
The SHAQ is used to calculate a Disability Index to assess the participant qualify of life. The eight categories assessed by the Disability Index are 1) dressing and grooming, 2) arising, 3) eating, 4) walking, 5) hygiene, 6) reach, 7) grip, and 8) common daily activities. For each of these categories, patients report the amount of difficulty they have in performing two or three specific activities. […]

[3] = 10 mg, single oral dose, healthy volunteers; cited from earlier work
participants with SSc-RP [4] = test: Pain score (11-point Likert scale) recorded during weekly RP attacks; type: in vivo, human; conditions: Tadalafil 5 mg (n = 4); Raynaud's pain, Table G
Text: as §1
The absolute change in highest pain score (11-point Likert scale) of weekly RP attacks from baseline to the end of each dosing period will be a secondary outcome variable. […] The variable will be calculated similar to frequency data as before.
The absolute change in average pain score (11-point Likert scale) of weekly RP attacks from baseline to the end of each Dosing Period will be a secondary outcome variable. […] The variable will be calculated similar to frequency data as before.

Compound | severity of attacks as reported by patients, comparison in words (participants with SSc-RP [1]) | patient-reported SSc disease disability compared to placebo (participants with SSc-RP [2]) | CL/F, Mean [3] [L/h] | Baseline Average Pain Score [Mean (SD)] (participants with SSc-RP [4])
COCCOC(=O)C1=C(C)NC(C)=C(C(=O)OC/C=C/c2ccccc2)C1c1cccc([N+](=O)[O-])c1 (stereo not shown) [Cilnidipine, 1,4-dihydro-2,6-dimethyl,4-(3-nitrophenyl)-3,5-pyridinedicarboxylic acid 2-methoxyethyl (2 E)-3-phenyl-2-propenyl ester] | 20 mg reducing severity more than 10 mg | may reduce | 304.7 | –
CN1CC(=O)N2[C@H](c3ccc4c(c3)OCO4)c3[nH]c4ccccc4c3C[C@@H]2C1=O [Tadalafil] | – | – | – | 5.47 (3.586)
